Assay results: paper PMC8371461 (Frontiers in Pharmacology, 2021)
Like-named read-outs stand apart in the source and are kept apart here.

Legend:
Assay type in all cases: binding
[1] = target: T1, ADCK4 (Homo sapiens, UniProt Q96D53); assay: kinome scan; conditions: 10 µM
T1 construct: purchased DiscoverX (KINOMEscan)

[2] = target: T2, ANKK1 (Homo sapiens, UniProt Q8NFD2); assay: Kd select analysis (DiscoverX)
T2 construct: purchased DiscoverX (KINOMEscan)
T2 sequence (Q8NFD2 1-765): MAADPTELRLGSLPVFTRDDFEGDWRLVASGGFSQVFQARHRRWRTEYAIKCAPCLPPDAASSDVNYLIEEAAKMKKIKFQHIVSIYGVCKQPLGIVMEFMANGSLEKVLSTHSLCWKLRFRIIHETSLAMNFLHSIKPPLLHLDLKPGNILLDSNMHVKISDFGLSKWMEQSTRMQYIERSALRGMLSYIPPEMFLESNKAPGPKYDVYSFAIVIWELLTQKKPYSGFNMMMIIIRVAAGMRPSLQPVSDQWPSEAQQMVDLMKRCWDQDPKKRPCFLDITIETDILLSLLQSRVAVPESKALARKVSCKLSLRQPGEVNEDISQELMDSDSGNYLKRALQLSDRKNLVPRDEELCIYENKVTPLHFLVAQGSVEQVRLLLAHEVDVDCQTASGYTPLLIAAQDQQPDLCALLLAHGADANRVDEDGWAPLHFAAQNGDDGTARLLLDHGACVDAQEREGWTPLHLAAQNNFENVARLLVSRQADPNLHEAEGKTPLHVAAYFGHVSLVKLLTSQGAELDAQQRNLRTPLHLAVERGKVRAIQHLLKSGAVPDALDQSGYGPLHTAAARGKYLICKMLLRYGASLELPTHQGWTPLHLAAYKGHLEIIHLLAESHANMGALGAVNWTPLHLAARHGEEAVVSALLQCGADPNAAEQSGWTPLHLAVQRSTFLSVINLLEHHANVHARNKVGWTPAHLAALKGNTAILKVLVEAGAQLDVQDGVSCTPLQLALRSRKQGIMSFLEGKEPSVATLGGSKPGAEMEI
Procedure: (§1) Hits are identified by an ultra-sensitive quantitative PCR detecting the specific DNA tag linked to each kinase (Supplementary Figure S2). The drug is used at a concentration of 10 µM and results are expressed as the percentage of signal (kinase PCR detection) with respect to DMSO control conditions. Thirteen hits were identified, with a signal reduction ranging from 0 to 27% (Table 3). Full raw data are presented in Supplementary Table S4. Interactions between 0 and 20% of reduction were considered to be the most significant ones. […] A sub-micromolar affinity (Kd<1 µM) was only seen with two PIKs (PIP4K2C, PI4KB) and GAK (Table 4). Inhibitions curves from these compounds are shown in Supplementary Figure S3.

[3] = target: T3, GAK (Homo sapiens, UniProt O14976); assay: Kd select analysis (DiscoverX)
T3 construct: T7 phage fusion (kinase-tagged phage); purchased DiscoverX; host or cells: BL21-derived E. coli (T7 phage)
T3 sequence (O14976 1-1311): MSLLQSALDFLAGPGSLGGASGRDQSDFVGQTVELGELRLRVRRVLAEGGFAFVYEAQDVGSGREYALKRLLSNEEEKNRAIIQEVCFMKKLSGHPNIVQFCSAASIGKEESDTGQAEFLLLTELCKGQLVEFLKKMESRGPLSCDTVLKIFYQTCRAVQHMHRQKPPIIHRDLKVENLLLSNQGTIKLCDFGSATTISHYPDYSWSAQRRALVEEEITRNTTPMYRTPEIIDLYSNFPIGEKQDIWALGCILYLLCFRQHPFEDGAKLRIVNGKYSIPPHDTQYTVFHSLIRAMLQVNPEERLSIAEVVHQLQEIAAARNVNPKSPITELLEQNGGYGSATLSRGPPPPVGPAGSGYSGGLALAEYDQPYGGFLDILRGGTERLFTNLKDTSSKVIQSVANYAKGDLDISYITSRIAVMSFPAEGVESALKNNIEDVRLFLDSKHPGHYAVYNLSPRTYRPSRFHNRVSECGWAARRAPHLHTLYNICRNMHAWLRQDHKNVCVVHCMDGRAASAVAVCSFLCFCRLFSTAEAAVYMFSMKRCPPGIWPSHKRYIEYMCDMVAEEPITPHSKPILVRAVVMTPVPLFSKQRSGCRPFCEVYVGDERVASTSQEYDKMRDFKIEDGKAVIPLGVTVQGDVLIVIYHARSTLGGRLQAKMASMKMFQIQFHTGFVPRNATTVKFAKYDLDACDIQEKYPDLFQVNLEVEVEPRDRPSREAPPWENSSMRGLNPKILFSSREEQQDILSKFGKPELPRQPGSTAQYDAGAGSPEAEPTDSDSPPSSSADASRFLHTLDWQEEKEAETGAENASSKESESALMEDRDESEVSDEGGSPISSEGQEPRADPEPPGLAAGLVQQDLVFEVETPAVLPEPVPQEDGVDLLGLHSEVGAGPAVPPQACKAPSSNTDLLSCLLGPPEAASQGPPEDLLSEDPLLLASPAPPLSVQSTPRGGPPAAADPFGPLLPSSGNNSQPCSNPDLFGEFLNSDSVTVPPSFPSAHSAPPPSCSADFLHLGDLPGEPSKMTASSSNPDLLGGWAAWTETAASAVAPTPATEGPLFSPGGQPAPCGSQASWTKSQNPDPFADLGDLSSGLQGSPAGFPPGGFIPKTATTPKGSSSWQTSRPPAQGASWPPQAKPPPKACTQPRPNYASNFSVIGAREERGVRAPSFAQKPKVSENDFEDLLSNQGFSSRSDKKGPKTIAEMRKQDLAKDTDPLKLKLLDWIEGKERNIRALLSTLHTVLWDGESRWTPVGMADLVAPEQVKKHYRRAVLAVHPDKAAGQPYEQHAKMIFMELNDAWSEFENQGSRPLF
Procedure: as §1

[4] = target: T4, MKNK2 (Homo sapiens, UniProt Q9HBH9); assay: Kd select analysis (DiscoverX)
T4 construct: purchased DiscoverX (KINOMEscan)
Procedure: as §1

[5] = target: T5, PI4KB (Homo sapiens, UniProt Q9UBF8); assay: Kd select analysis (DiscoverX)
T5 construct: T7 phage fusion (kinase-tagged phage); purchased DiscoverX; host or cells: BL21-derived E. coli (T7 phage)
Procedure: as §1

[6] = target: T6, PIP4K2C (Homo sapiens, UniProt Q8TBX8); assay: Kd select analysis (DiscoverX)
T6 construct: T7 phage fusion (kinase-tagged phage); purchased DiscoverX; host or cells: BL21-derived E. coli (T7 phage)
Procedure: as §1

[7] = target: T7, RIOK2 (Homo sapiens, UniProt Q9BVS4); assay: Kd select analysis (DiscoverX)
T7 construct: T7 phage fusion (kinase-tagged phage); purchased DiscoverX; host or cells: BL21-derived E. coli (T7 phage)
Procedure: as §1

[8] = sub-micromolar affinity, read-out: Kd

T6 sequence (Q8TBX8 whole entry, the tested form may be a part): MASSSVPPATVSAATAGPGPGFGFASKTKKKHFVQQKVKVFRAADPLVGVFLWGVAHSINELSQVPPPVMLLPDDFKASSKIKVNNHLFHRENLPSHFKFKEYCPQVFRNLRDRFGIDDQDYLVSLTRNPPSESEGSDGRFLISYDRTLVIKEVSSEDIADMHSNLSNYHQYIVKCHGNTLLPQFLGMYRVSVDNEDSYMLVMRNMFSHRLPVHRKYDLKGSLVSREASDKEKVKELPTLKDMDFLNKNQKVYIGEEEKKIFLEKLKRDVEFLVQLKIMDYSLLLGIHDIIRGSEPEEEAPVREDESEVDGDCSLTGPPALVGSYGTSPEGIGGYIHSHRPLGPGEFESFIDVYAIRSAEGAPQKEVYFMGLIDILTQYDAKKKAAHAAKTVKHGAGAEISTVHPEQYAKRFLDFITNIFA
T5 sequence (Q9UBF8 whole entry, the tested form may be a part): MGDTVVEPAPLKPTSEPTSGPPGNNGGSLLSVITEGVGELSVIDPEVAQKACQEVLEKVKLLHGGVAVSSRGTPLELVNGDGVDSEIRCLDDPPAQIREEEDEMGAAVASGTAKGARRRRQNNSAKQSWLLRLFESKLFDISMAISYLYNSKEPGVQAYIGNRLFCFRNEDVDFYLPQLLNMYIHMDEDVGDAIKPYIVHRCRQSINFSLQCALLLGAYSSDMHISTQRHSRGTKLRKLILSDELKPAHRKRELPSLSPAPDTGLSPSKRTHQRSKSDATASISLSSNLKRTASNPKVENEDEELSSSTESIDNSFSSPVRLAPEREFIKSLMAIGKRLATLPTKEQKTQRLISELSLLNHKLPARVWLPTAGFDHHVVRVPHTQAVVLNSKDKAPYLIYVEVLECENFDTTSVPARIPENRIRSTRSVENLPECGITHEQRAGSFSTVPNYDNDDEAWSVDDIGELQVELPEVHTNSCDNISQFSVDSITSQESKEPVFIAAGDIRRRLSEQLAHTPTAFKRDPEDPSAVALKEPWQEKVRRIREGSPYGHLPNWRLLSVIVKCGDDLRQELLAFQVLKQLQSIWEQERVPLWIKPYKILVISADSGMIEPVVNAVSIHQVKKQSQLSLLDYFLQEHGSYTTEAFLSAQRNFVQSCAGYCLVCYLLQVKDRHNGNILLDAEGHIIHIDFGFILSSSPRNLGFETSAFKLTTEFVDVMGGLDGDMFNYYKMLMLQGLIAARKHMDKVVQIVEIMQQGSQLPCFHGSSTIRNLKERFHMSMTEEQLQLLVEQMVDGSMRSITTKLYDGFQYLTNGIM
T4 sequence (Q9HBH9 whole entry): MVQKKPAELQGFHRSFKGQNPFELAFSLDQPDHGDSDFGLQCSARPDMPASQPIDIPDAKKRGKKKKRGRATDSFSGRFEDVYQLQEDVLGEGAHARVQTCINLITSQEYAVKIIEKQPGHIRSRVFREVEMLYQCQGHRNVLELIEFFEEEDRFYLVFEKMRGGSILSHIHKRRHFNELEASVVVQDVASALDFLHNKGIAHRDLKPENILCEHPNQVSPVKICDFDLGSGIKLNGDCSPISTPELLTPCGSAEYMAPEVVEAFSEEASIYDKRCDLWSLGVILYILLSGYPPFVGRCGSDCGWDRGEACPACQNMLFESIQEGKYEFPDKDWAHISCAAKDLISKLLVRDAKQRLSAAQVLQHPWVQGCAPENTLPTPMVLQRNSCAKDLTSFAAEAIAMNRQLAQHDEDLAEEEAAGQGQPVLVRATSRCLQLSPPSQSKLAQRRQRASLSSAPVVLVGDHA
T7 sequence (Q9BVS4 whole entry, the tested form may be a part): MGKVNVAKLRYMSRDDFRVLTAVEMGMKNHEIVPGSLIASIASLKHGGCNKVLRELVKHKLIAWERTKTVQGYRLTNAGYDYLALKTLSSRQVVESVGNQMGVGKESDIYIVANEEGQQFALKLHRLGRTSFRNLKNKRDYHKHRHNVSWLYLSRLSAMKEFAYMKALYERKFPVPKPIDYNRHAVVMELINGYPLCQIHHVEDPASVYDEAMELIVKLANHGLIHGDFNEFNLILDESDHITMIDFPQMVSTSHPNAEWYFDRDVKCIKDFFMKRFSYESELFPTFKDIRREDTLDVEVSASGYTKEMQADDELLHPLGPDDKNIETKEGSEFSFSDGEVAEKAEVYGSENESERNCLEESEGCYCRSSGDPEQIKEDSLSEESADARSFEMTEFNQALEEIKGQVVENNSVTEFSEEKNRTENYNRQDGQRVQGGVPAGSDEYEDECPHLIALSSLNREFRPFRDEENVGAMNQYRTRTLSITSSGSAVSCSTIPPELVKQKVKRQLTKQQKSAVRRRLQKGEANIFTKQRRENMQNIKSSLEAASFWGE
T1 sequence (Q96D53 whole entry): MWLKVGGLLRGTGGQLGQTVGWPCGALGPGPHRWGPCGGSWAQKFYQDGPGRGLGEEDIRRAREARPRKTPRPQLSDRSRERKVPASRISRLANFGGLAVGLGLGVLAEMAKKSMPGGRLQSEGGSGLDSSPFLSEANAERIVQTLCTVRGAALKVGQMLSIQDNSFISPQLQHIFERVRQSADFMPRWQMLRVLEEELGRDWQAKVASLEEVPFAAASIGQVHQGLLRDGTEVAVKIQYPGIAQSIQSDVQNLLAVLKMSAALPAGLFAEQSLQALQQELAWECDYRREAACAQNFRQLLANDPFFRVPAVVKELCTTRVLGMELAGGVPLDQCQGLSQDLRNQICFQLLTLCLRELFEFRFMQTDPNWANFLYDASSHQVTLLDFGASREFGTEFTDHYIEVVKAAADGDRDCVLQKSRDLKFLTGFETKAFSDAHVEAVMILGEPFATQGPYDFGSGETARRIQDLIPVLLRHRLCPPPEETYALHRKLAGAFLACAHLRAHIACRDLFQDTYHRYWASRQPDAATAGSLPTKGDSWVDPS

Q: What does the source list for Nc1ccc(N=Nc2ccccc2)c(N)n1 [phenazopyridine, 2,6-diamino-3-(phenylazo)pyridine]?
A: kinase inhibition [1]: 90; Kd [2]: 21000 nM; Kd ([3]; Phenazopyridine Kd (nM)): 760 nM; Kd [3, 8]: < 1000 nM; Kd [4]: 2100 nM; Kd ([5]; Phenazopyridine Kd (nM)): 730 nM; Kd [5, 8]: < 1000 nM; Kd ([6]; Phenazopyridine Kd (nM)): 540 nM; Kd [6, 8]: < 1000 nM; Kd [7]: 1000 nM
